The values that follow come from patent publication US20120184537A1, “[1,4]-BENZODIAZEPINES AS VASOPRESSIN V2 RECEPTOR ANTAGONISTS” (SHIRE-MOVETIS N.V., priority 2009, published 2012).

As usually defined, the IC50 is the point on the concentration scale where inhibition reaches its midpoint.

The target of assay [1] is T1, human V1a receptors (Homo sapiens, UniProt P37288). In words: Human V1a agonist effect (intracellular calcium mobilization in transfected CHO cells). The format is cell-based. Details: expressed in transfected cells; host or cells: CHO cells. To be noted: compound at 1 μM, control response to 1 μM AVP, Ca2+ fluorescence. As to the method: (§1) Intracellular calcium mobilization was measured in CHO cells transfected to express either human V1a receptors (supra), in analogy with the Measurement of intracellular Ca^2+ concentration as described in Tahara A., et al., (1998) Brit. J. Pharmacol., 125; 1463-1470; which is incorporated herein by reference.
T1 sequence (P37288 whole entry): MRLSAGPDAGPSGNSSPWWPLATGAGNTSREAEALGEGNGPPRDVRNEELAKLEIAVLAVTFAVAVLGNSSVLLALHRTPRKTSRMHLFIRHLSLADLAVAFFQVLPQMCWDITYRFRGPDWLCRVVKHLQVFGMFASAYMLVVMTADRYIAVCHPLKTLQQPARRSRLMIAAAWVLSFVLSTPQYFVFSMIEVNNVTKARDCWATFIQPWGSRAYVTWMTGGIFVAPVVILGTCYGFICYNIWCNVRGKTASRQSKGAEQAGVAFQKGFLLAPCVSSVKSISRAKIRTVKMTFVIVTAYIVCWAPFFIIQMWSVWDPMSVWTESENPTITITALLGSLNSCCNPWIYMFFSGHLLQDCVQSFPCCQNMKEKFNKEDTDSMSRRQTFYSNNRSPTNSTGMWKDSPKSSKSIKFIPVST
(§2) The cells are suspended in DMEM buffer (Invitrogen) complemented with 0.1% fetal calf serum, then distributed in microplates at a density of 4.5×10^4 cells/well.
(§3) The fluorescent probe (Calcium4, Molecular Device) mixed with probenicid in HBSS buffer (Invitrogen) complemented with 20 mM Hepes (Invitrogen) (pH 7.4) is then added into each well and equilibrated with the cells for 60 min at 37° C. then 15 min at 22° C. Thereafter, the assay plates are positioned in a microplate reader (CellLux, PerkinElmer) which is used for the addition of the test compound, reference agonist or HBSS buffer (basal control), and for the measurements of changes in fluorescence intensity which varies proportionally to the free cytosolic Ca^2+ ion concentration. For stimulated control measurements, AVP at 1 μM is added in separate assay wells.
The results are expressed as a percent of the control response to 1 μM AVP.
Background: A change in cytosolic calcium serves as a functional read-out for many receptors and channels.

Assay [2] deals with T2, human V2 receptor (Homo sapiens, UniProt P30518). Description: Human vasopressin V2 receptor binding assay ([3H]AVP displacement). Details: expressed in transfected cells; host or cells: CHO cells (membrane homogenates). To be noted: displacement of 0.3 nM [3H]AVP, CHO cell membranes, 120 min at 22° C. How it is done:
(§4) The in vitro inhibition of AVP receptor binding was assessed by using recombinant human V1a or V2 receptor preparations derived from the membranes of transfected CHO cells. Compounds were assessed for their ability to displace [^3H]-arginine vasopressin from plasma membrane preparations of said CHO transfected cells in analogy with the Binding Assay procedures described in Cotte N., et al., (1998) J. Biol. Chem., 273; 29462-29468 and Tahara A., et al., (1998) Brit. J. Pharmacol., 125; 1463-1470; which are incorporated herein by reference.
(§5) Cell membrane homogenates (16 μg protein) are incubated for 120 min at 22° C. with 0.3 nM [^3H]AVP in the absence or presence of the test compound in a buffer containing 50 mM Tris-HCl (pH 7.4), 5 mM MgCl2 and 0.1% BSA. Nonspecific binding is determined in the presence of 1 μM AVP. Following incubation, the samples are filtered rapidly under vacuum through glass fiber filters (GF/B, Packard) presoaked with 0.3% PEI and rinsed three times with ice-cold 50 mM Tris-HCl using a 96-sample cell harvester (Unifilter, Packard). The filters are dried then counted for radioactivity in a scintillation counter (Topcount, Packard) using a scintillation cocktail (Microscint 0, Packard).
(§6) The standard reference compound is AVP (V2 receptor binding assay) or [d(CH2)51,Tyr(Me)2]-AVP (V1a receptor binding assay), which is tested in each experiment at several concentrations to obtain a competition curve from which its IC50 is calculated.

The target of assay [3] is T2, human V2 receptor. Description: Human V2 agonist effect (cAMP accumulation in transfected CHO cells). Further details: expressed in transfected cells; host or cells: CHO cells. The format is cell-based. The following applies: compound at 1 μM, control response to 1 nM AVP. As to the method:
(§7) The accumulation of cAMP was measured in transfected CHO cells (supra) expressing the human V2 receptor in analogy with the cAMP Assay procedures described in Cotte N., et al., (1998) J. Biol. Chem., 273; 29462-29468; which is incorporated herein by reference.
The cells are suspended in HBSS buffer (Invitrogen) complemented with 20 mM HEPES 20 (pH 7.4), 0.01% BSA and 500 μM IBMX, then distributed in microplates at a density of 3×10^3 cells/well and incubated for 30 min at 22° C. in the absence (control) or presence of the test compound or the reference agonist. For stimulated control measurement, separate assay wells contain AVP at a final concentration of 1 nM. Following incubation, the cells are lysed and the fluorescence acceptor (D2-labeled cAMP) and fluorescence donor (anti-cAMP antibody labeled with europium cryptate) are added. After 60 min at 22° C., the fluorescence transfer is measured at λex=337 nm and λem=620 and 665 nm using a microplate reader (Rubystar, BMG). The cAMP concentration is determined by dividing the signal measured at 665 nm by that measured at 620 nm (ratio).
The results are expressed as a percent of the control response to 1 nM AVP.

Assay [4] has as its target T1, human V1a receptors. In words: Human vasopressin V1a receptor binding assay ([3H]AVP displacement). Details: expressed in transfected cells; host or cells: CHO cells (membrane homogenates). The following applies: displacement of 0.3 nM [3H]AVP, CHO cell membranes, 22° C. As to the method: as §4
as §5, with “(40” for “(16”, “for” for “for 120”
as §6

The target of assay [5] is T1, human V1a receptors. Description: Human V1a antagonist effect (AVP-induced calcium mobilization in transfected CHO cells). Details: expressed in transfected cells; host or cells: CHO cells. The format is cell-based. The following applies: inhibition of response to 10 nM AVP, Ca2+ fluorescence, read-out: V1a antagonism IC50. As to the method:
as §1, §2
as §3, with “compound” for “compound, reference agonist”, “then 5 min later 10 nM AVP or HBSS buffer (control),” for “(basal control),”, “Ca2+” for “Ca^2+”, “concentration.” for “concentration. For stimulated control measurements, AVP at 1 μM is added in separate assay wells.”
The standard reference antagonist is [d(CH2)^51,Tyr(Me)^2,Arg^8]-AVP, which is tested in each experiment at several concentrations to generate a concentration-response curve from which its IC50 value is calculated.

For assay [6], the target named is T2, human V2 receptor. Description: Human V2 antagonist effect (AVP-induced cAMP accumulation in transfected CHO cells). Further details: expressed in transfected cells; host or cells: CHO cells. The following applies: inhibition of control response to 0.03 nM AVP, read-out: V2 antagonism IC50. The format is cell-based. How it is done:
as §7
The cells are suspended in HBSS buffer (Invitrogen) complemented with 20 mM HEPES (pH 7.4), 0.01% and 500 μM IBMX, then distributed in microplates at a density of 3×10^3 cells/well and preincubated for 5 min at 22° C. in the absence (control) or presence of the test compound or the reference antagonist. Thereafter, the reference agonist AVP is added at a final concentration of 0.03 nM.
Following 30 min incubation at 22° C., the cells are lysed and the fluorescence acceptor (D2-labeled cAMP) and fluorescence donor (anti-cAMP antibody labeled with europium cryptate) are added. After 60 min at 22° C., the fluorescence transfer is measured at λex=337 nm and λem=620 and 665 nm using a microplate reader (Rubystar, BMG). The cAMP concentration is determined by dividing the signal measured at 665 nm by that measured at 620 nm (ratio). The results are expressed as a percent inhibition of the control response to 0.03 nM AVP.
The standard reference antagonist is [adamantaneacetyl^1,O-Et-D-Tyr^2,Val^4,aminobutyryl^6]-AVP, which is tested in each experiment at several concentrations to generate a concentration-response curve from which its IC50 value is calculated.

On to `O=C(Nc1ccc(C(=O)N2C[C@@H](CO)NCc3ccccc32)c(Cl)c1)c1ccccc1-c1ccccc1` [Compound 14, (S)—N-(3-chloro-4-(3-(hydroxymethyl)-2,3,4,5-tetrahydro-1H-benzo[e][1,4]diazepine-1-carbonyl)phenyl)biphenyl-2-carboxamide], for which, at human V1a receptors [1], the “V1a agonist effect, % of control agonist response (AVP)” value (“V1a agonist effect, %” for short) is given as −1%. Moreover, the IC50 is 5.8 nM on human V2 receptor [2], 3800 nM on human V1a receptors [4], more than 100000 nM on human V1a receptors [5] and 57 nM on human V2 receptor [6]. At human V2 receptor [3], the “V2 agonist effect, % of control agonist response (AVP)” value (shortened to “V2 agonist effect, %”) is given as −1%.

Turning to `O=C1CN2Cc3ccccc3N(C(=O)c3ccc(NC(=O)c4ccccc4-c4ccccc4)cc3Cl)C[C@H]2CO1` [Compound 16, (S)—N-(3-chloro-4-(3-oxo-3,4,6,11,12,12a-hexahydro-1H-benzo[e][1,4]oxazino[4,3-a][1,4]diazepine-11-carbonyl)phenyl)biphenyl-2-carboxamide], the “V1a agonist effect, %” value on human V1a receptors [1] is reported as −1%. The IC50 on human V2 receptor [2] is 1.9 nM; at human V1a receptors [4], 240 nM; on human V1a receptors [5] it was more than 100000 nM; at human V2 receptor [6], 13 nM. Also, the “V2 agonist effect, %” value on human V2 receptor [3] is reported as 0%.

Regarding `O=C(O)CN1Cc2ccccc2N(C(=O)c2ccc(NC(=O)c3ccccc3-c3ccccc3)cc2Cl)C[C@H]1CO` [Compound 17, (S)-2-(1-(4-biphenyl-2-ylcarboxamido-2-chlorobenzoyl)-3-(hydroxymethyl)-2,3-dihydro-1H-benzo[e][1,4]diazepin-4(5H)-yl)acetic acid], the “V1a agonist effect, %” value at human V1a receptors [1] is listed as −1%. In addition, the IC50 at human V2 receptor [2] is 120 nM; at human V2 receptor [6], 2800 nM. Moreover, the “V2 agonist effect, %” value on human V2 receptor [3] is −1%.

On to `O=C(Nc1ccc(C(=O)N2C[C@H]3COC(O)CN3Cc3ccccc32)c(Cl)c1)c1ccccc1-c1ccccc1` (stereo partly drawn) [Compound 19, (S)—N-(3-chloro-4-(3-hydroxy-3,4,6,11,12,12a-hexahydro-1H-benzo[e][1,4]oxazino[4,3-a][1,4]diazepine-11-carbonyl)phenyl)biphenyl-2-carboxamide], for which the “V1a agonist effect, %” value at human V1a receptors [1] is −1%. In addition, the IC50 on human V2 receptor [2] stood at 2.5 nM; on human V1a receptors [4], 210 nM; at human V1a receptors [5], 20000 nM; on human V2 receptor [6] it was 11 nM. Also, the “V2 agonist effect, %” value on human V2 receptor [3] is listed as 0%.

As to “N-[3-chloro-4-({13-oxa-1,9-diazatricyclo[9.4.0.0^{3,8}]pentadeca-1,3,5,7-tetraen-9-yl}carbonyl)phenyl]-2-phenylbenzamide [Compound 21]”, the IC50 at human V2 receptor [2] is 19 nM; at human V1a receptors [4] it was 780 nM; at human V1a receptors [5], more than 100000 nM; at human V2 receptor [6], 410 nM. The “V2 agonist effect, %” value at human V2 receptor [3] is listed as −1.5%.
